Data from patent US8748598B2, “Analogs of 3-O-acetyl-11-keto-beta-boswellic acid” (Laila Nutraceuticals, priority 2004, dated 2014).
≈ marks a conversion by molar mass, not a printed value. Like-named read-outs stand apart in the source and are kept apart here. Each block holds one compound with its values, some of them ahead of it.

Columns and labels:
[1] = system: Jurkat; format: cell-based, human; design: minimum inhibitory concentration (MIC) Jurkat: unit not given here; conditions: for minimum inhibitory concentration (MIC) Jurkat: MTT assay
Procedure: (§1) MTT [3-(4,5-dimethylthiazol-2-yl)-2,5-diphenyltetrazolium bromide] incorporation based cell proliferation assay was performed as described previously (Reference). The cytotoxic efficacy of some analogs was evaluated in different cell lines by MTT cell proliferation assay kit (Roche Applied Sciences, Germany). The assay was carried out according to the instruction provided by the vendor. Briefly, in brief, equal numbers of cells was plated in 96-well flat-bottomed plates in 100 μl of medium and were exposed to different analogs selected from 1 to 63 at various concentrations up to 10 μg/ml for a period of three days. Vehicle control culture wells received only a maximum of 0.5% DMSO. Thereafter, 0.5 mg/ml of MTT reagent was added to each well and the microplate was incubated further for 4 h at 37° C. in presence of 5% CO2. Finally, the cells were solubilized by adding solubilizing solution and allowed to incubate at 37° C. overnight. After complete solubilization of the formazan crystals the absorbance was read at 540 nm in a microplate reader (BioRad, USA). The results (mean OD±SD) obtained from quadruplicate wells were used in calculation to determine the inhibition of cell proliferation (50% of inhibitory concentration, IC50) of the test compounds.
(§2) The cytotoxic properties of some analogs were evaluated by MTT incorporation assay. The methodology of the assay procedure was the same as mentioned in example 41.

[2] = system: PC3M; test: Cytotoxicity MTT assay, PC3M; format: cell-based, human; design: minimum inhibitory concentration (MIC) PC3M: unit not given here; conditions: for minimum inhibitory concentration (MIC) PC3M: MTT assay
[3] = system: HePG2; test: Cytotoxicity MTT assay, HePG2; format: cell-based, human; design: unit not given here
Procedure: as §1, §2

[4] = system: MDA-MB-231; test: MTT cell proliferation assay, MDA-MB-231; format: cell-based, human
Procedure: as §1, §2

[5] = system: MCF-7; test: MTT cell proliferation assay, MCF-7; format: cell-based, human
Procedure: as §1, §2

[6] = system: potato 5-lipoxygenase; test: 5-Lipoxygenase enzyme inhibitory activity; format: biochemical
Procedure: 5-Lipoxygenase enzyme inhibitory activity was measured using the method of Schewe et al. (Adv Enzymol, Vol 58, 191-272, 1986), modified by Reddanna et. al., (Methods of Enzymology, Vol 187, 268-277, 1990). The assay mixture contained 80 μM linoleic acid and sufficient amount of potato 5-lipoxygenase in 50 mM phosphate buffer (pH 6.3). The reaction was initiated by the addition of enzyme buffer mix to linoleic acid and the enzyme activity was monitored as the increase in absorbance at 234 nm. The reaction was monitored for 120 sec and the inhibitory potential of the test substances (29, 31, 33, 34, 35, 36, 39, 40, 43, 44, 46, 47, 48, 49, 50, 54, 57, 59, 62 & 63) was measured by incubating various concentrations of test substances two minutes before the addition of linoleic acid. All assays were performed three times. Percentage inhibition was calculated by comparing the slope of the curve obtained for test substances with that of the control.

[7] = system: A549; test: MTT cell proliferation assay, A549; format: cell-based, human; conditions: Homo sapiens, A549; Table 2; 10 ug/ml
Procedure: as §1

[8] = system: B16; test: MTT cell proliferation assay, B16; format: cell-based, mouse; conditions: Mus musculus, B16; Table 2; 10 ug/ml
Procedure: as §1

[9] = Homo sapiens, MCF7, Table 4, 10 μg/ml, read-out: Percentage Inhibition of cell proliferation MCF-7
[10] = Homo sapiens, MDA-MB-231, Table 2, 10 ug/ml, read-out: Inhibition of cell proliferation MDA-MB-231, % at 10 ug/ml
[11] = Homo sapiens, MDA-MB-231, Table 4, 10 μg/ml, read-out: Percentage Inhibition of cell proliferation MDA-MB-231
[12] = Homo sapiens, MCF7, Table 2, 10 ug/ml, read-out: Inhibition of cell proliferation MCF-7, % at 10 ug/ml

Compound: COc1cc(C(=O)O[C@@H]2CC[C@@]3(C)C(CC[C@]4(C)C3C(=O)C=C3C5[C@@H](C)[C@H](C)CC[C@]5(C)CC[C@]34C)[C@@]2(C)C(=O)O)cc(O)c1O (some centres unmarked) [Analog 3]
minimum inhibitory concentration (MIC) Jurkat [1]: 125
cytotoxicity against PC3M [2]: significantly more potent
minimum inhibitory concentration (MIC) PC3M [2]: 30
minimum inhibitory concentration (MIC) HePG2 [3]: 150

Compound: C[C@H](N)C(=O)O[C@@H]1CC[C@@]2(C)C(CC[C@]3(C)C2C(=O)C=C2C4[C@@H](C)[C@H](C)CC[C@]4(C)CC[C@]23C)[C@@]1(C)C(=O)O (some centres unmarked) [Analog 11]
IC50 ([4]; Homo sapiens, MDA-MB-231, Table 4): 28.9 µg/mL (≈ 53.4 µM)
IC50 ([5]; Homo sapiens, MCF7, Table 4): 33.3 µg/mL (≈ 61.5 µM)
minimum inhibitory concentration (MIC) Jurkat [1]: 50
minimum inhibitory concentration (MIC) PC3M [2]: 30
minimum inhibitory concentration (MIC) HePG2 [3]: 100-150

Compound: CC(=O)OC1CC[C@@]2(C)C(CC[C@]3(C)C2C(=O)C=C2C4[C@@H](C)[C@H](C)CC[C@]4(C)CC[C@]23C)[C@@]1(C)C(N)=O (some centres unmarked) [Analog 19]
Percentage Inhibition of cell proliferation MDA-MB-231 ([4]; Table 4, 10 μg/ml): 38.72% at 10 μg/ml
IC50 values MCF-7 ([5]; Table 4): IC50 at 30.05 μg/ml
cytotoxicity against leukemia cells [1]: highly potent selectively
minimum inhibitory concentration (MIC) Jurkat [1]: 10
minimum inhibitory concentration (MIC) PC3M [2]: >150
minimum inhibitory concentration (MIC) HePG2 [3]: >150

Compound: CC(=O)O[C@@H]1CC[C@@]2(C)C(CC[C@]3(C)C2C(=O)C=C2C4[C@@H](C)[C@H](C)CC[C@]4(C)CC[C@]23C)[C@@]1(C)C(=O)NN (some centres unmarked) [Analog 20]
inhibition at 10 µg/mL [5, 9]: 44%
minimum inhibitory concentration (MIC) Jurkat [1]: 50
cytotoxicity against PC3M [2]: significantly more potent
minimum inhibitory concentration (MIC) PC3M [2]: 10
minimum inhibitory concentration (MIC) HePG2 [3]: 40

% inhibition at 10 μg/ml [6]: 33.29%
Compound: CCCCNC(=O)[C@]1(C)C2CC[C@]3(C)C(C(=O)C=C4C5[C@@H](C)[C@H](C)CC[C@]5(C)CC[C@]43C)[C@@]2(C)CC[C@H]1OC(C)=O (some centres unmarked) [Analog 29]
Inhibition of cell proliferation MDA-MB-231, % at 10 ug/ml ([4]; Table 2, 10 ug/ml): 36% at 10
Percentage Inhibition of cell proliferation MDA-MB-231 ([4]; Table 4, 10 μg/ml): 36% at 10 μg/ml
Inhibition of cell proliferation MCF-7, % at 10 ug/ml ([5]; Table 2, 10 ug/ml): 38.3% at
Percentage Inhibition of cell proliferation MCF-7 ([5]; Table 4, 10 μg/ml): 38.3 at 10 μg/ml %

Compound: CC(=O)O[C@@H]1CC[C@@]2(C)C(CC[C@]3(C)C2C(=O)C=C2C4[C@@H](C)[C@H](C)CC[C@]4(C)CC[C@]23C)[C@@]1(C)C(=O)NC(C)C (some centres unmarked) [Analog 30]
inhibition at 10 µg/mL [4, 10]: 35%
inhibition at 10 µg/mL [4, 11]: 35%
inhibition at 10 µg/mL [5, 12]: 46%
inhibition at 10 µg/mL [5, 9]: 46%
inhibition at 10 µg/mL [7]: 18%

% inhibition at 10 μg/ml [6]: 18.57%
% inhibition at 25 μg/ml ([6]; 25 μg/ml): 36.73%
Compound: CC(=O)O[C@@H]1CC[C@@]2(C)C(CC[C@]3(C)C2C(=O)C=C2C4[C@@H](C)[C@H](C)CC[C@]4(C)CC[C@]23C)[C@@]1(C)C(=O)N(C)C (some centres unmarked) [Analog 31]
inhibition at 10 µg/mL [4, 10]: 46%
inhibition at 10 µg/mL [4, 11]: 46%
inhibition at 10 µg/mL [7]: 17%
inhibition at 10 µg/mL [8]: 10%

Compound: COC(=O)CNC(=O)[C@]1(C)C2CC[C@]3(C)C(C(=O)C=C4C5[C@@H](C)[C@H](C)CC[C@]5(C)CC[C@]43C)[C@@]2(C)CC[C@H]1OC(C)=O (some centres unmarked) [Analog 32]
inhibition at 10 µg/mL [4, 10]: 41%
inhibition at 10 µg/mL [4, 11]: 41%
inhibition at 10 µg/mL [5, 12]: 14%
inhibition at 10 µg/mL [5, 9]: 14%
inhibition at 10 µg/mL [7]: 10%
